Results published in PMC11784026, “Phase 1 study of the safety, tolerability, and pharmacokinetics of a synthetic macrocyclic peptide antibiotic (BRII-693) in healthy adult participants” (Antimicrobial Agents and Chemotherapy, 2024).
Like-named read-outs stand apart in the source and are kept apart here. Where a SMILES comes first, the peptide text is derived from it. Bridges are numbered along the chain shown (N, C = ends). [ ]: non-standard residue; d: D form. The star is where a group is joined. X1 = O=C(c1ccc(Cl)cc1Cl)*; Dab = NCC[C@H](N)C(=O)O; Abu = CC[C@H](N)C(=O)O; Dap = NC[C@H](N)C(=O)O

Assay: Plasma pharmacokinetics after multiple ascending doses (MAD), phase 1
Assay type: in vivo, human (healthy adult participants)
Conditions: for Vd: read-out: VZ
Description: Participants were discharged on day 11.
Plasma and urine PK parameters were summarized for each cohort using descriptive statistics. Analyses using linear models were performed to assess dose proportionality (both single-dose cohorts 1–7 and multiple-dose cohorts 8–10). Dose-linearity of Cmax and AUC across the dose range was assessed by fitting the power model with ln-transformed parameter as response variables and ln-transformed dose (continuous variable) as a fixed effect. For each PK parameter and study phase (SAD or MAD) separately, a pooled estimate (across all dose cohorts) of slope, corresponding 95% confidence interval (CI), and between-subject coefficient of variation (CV) were calculated. Dose proportionality was to be concluded if the 95% CI for the slope spans 1. […] Least square means (LSMs) and difference in LSMs with 90% CI were calculated; these values were then back exponentiated to give the geometric LSM, geometric mean ratio, and 90% CI.

[1] = human, plasma, iv, 100 mg, First q6h dose (day 3), 7-day MAD 100 mg q6h × 7, n = 3, arithmetic mean ± SD
[2] = human, plasma, iv, 100 mg, Last q6h dose (day 9), 7-day MAD 100 mg q6h × 7, n = 6, arithmetic mean ± SD
[3] = human, plasma, iv, 150 mg, First q6h dose (day 1), 14-day MAD 150 mg q6h × 14, Chinese, n = 10, arithmetic mean ± SD
[4] = human, plasma, iv, 150 mg, First q6h dose (day 1), 14-day MAD 150 mg q6h × 14, non-Chinese, n = 10, arithmetic mean ± SD
[5] = human, plasma, iv, 150 mg, First q6h dose (day 3), 7-day MAD 150 mg q6h × 7, n = 5, arithmetic mean ± SD
[6] = human, plasma, iv, 150 mg, Last q6h dose (day 9), 7-day MAD 150 mg q6h × 7, n = 5, arithmetic mean ± SD
[7] = human, plasma, iv, 150 mg, Last q6h dose (day 14), 14-day MAD 150 mg q6h × 14, Chinese, n = 6, arithmetic mean ± SD
[8] = human, plasma, iv, 150 mg, Last q6h dose (day 14), 14-day MAD 150 mg q6h × 14, non-Chinese, n = 10, arithmetic mean ± SD
[9] = human, plasma, iv, 200 mg, First q6h dose (day 3), 7-day MAD 200 mg q6h × 7, n = 4, arithmetic mean ± SD
[10] = human, plasma, iv, 200 mg, Last q6h dose (day 9), 7-day MAD 200 mg q6h × 7, n = 5, arithmetic mean ± SD

CC[C@@H]1NC(=O)[C@@H](CC(C)C)NC(=O)[C@H](CCN)NC(=O)[C@@H](NC(=O)[C@H](CN)NC(=O)[C@@H](NC(=O)[C@H](CCN)NC(=O)c2ccc(Cl)cc2Cl)[C@@H](C)O)CCNC(=O)[C@H]([C@@H](C)O)NC(=O)[C@H](CCN)NC(=O)[C@H](CCN)NC1=O [BRII-693] (X1-[Dab]T[Dap][Dab][Dab][dL][Abu][Dab][Dab]T; lactam 4-C; N-terminus assumed)
Tmax (Last q6h dose (day 14), 14-day MAD 150 mg q6h × 14, Chinese, n = 6, median (range)): 1.07 (1.05, 1.22) h
ARAUC (accumulation ratio based on AUC) (Last q6h dose (day 14), 14-day MAD 150 mg q6h × 14, non-Chinese, n = 10, arithmetic mean ± SD): 1.58 ± 0.17
Tmax (Last q6h dose (day 14), 14-day MAD 150 mg q6h × 14, non-Chinese, n = 10, median (range)): 1.07 (1.02, 1.10) h
Geometric mean ratio for AUC0-6h, Chinese vs non-Chinese (after the first dose on day 1, 150 mg q6h × 14, 90% CI: 0.966, 1.20): 1.08
Geometric mean ratio for Cmax, Chinese vs non-Chinese (after the first dose on day 1, 150 mg q6h × 14, 90% CI: 0.970, 1.24): 1.10
Geometric mean ratio for AUC0-6h, Chinese vs non-Chinese (after the last dose on Day 14, 150 mg q6h × 14, 90% CI 0.926, 1.25): 1.08
Geometric mean ratio for Cmax, Chinese vs non-Chinese (after the last dose on Day 14, 150 mg q6h × 14, 90% CI 0.935, 1.20): 1.06
Cmax (human, plasma, iv, 100 mg, First q6h dose (day 3), 7-day MAD 100 mg q6h × 7, 1-h IV infusion, plasma, n = 6, arithmetic mean ± SD): 5960 ± 710 ng/mL
clearance [1]: 80.5 mL/min
Vd [1]: 17.1 ± 2.72 L
half-life (human, plasma, iv, 100 mg, First q6h dose (day 3), 7-day MAD 100 mg q6h × 7, n = 6, arithmetic mean ± SD): 2.88 ± 0.5 h
AUC(0-t) (human, plasma, iv, 100 mg, First q6h dose (day 3), 7-day MAD 100 mg q6h × 7, n = 6, arithmetic mean ± SD, read-out: AUC0-6h): 18000 ± 2380 ng·h/mL
clearance [2]: 59.5 mL/min
half-life [2]: 7.58 ± 1.72 h
AUC(0-t) (human, plasma, iv, 100 mg, Last q6h dose (day 9), 7-day MAD 100 mg q6h × 7, n = 6, arithmetic mean ± SD, read-out: AUC0–6h): 28600 ± 4480 ng·h/mL
Vd [2]: 38.4 ± 8.18 L
Tmax (human, plasma, iv, 100 mg, Last q6h dose (day 9), 7-day MAD 100 mg q6h × 7, n = 6, median (range), read-out: Tmax): 1.18 h
Cmax (human, plasma, iv, 100 mg, Last q6h dose (day 9), 7-day MAD 100 mg q6h × 7, plasma, n = 6, arithmetic mean ± SD): 8120 ± 1000 ng/mL
clearance [3]: 77.7 mL/min
half-life [3]: 2.15 ± 0.28 h
AUC(0-t) (human, plasma, iv, 150 mg, First q6h dose (day 1), 14-day MAD 150 mg q6h × 14, Chinese, n = 10, arithmetic mean ± SD, read-out: AUC0-6h): 27300 ± 4140 ng·h/mL
Vd [3]: 14.4 ± 2.93 L
Cmax (human, plasma, iv, 150 mg, First q6h dose (day 1), 14-day MAD 150 mg q6h × 14, Chinese, plasma, n = 10, arithmetic mean ± SD): 10200 ± 1890 ng/mL
clearance [4]: 80 mL/min
half-life [4]: 2.42 ± 0.29 h
AUC(0-t) (human, plasma, iv, 150 mg, First q6h dose (day 1), 14-day MAD 150 mg q6h × 14, non-Chinese, n = 10, arithmetic mean ± SD, read-out: AUC0-6h): 25200 ± 2860 ng·h/mL
Vd [4]: 16.7 ± 2.57 L
Cmax (human, plasma, iv, 150 mg, First q6h dose (day 1), 14-day MAD 150 mg q6h × 14, non-Chinese, plasma, n = 10, arithmetic mean ± SD): 9200 ± 1050 ng/mL
Cmax (human, plasma, iv, 150 mg, First q6h dose (day 3), 7-day MAD 150 mg q6h × 7, 1-h IV infusion, plasma, n = 5, arithmetic mean ± SD): 8690 ± 1240 ng/mL
clearance [5]: 82.3 mL/min
AUC(0-t) (human, plasma, iv, 150 mg, First q6h dose (day 3), 7-day MAD 150 mg q6h × 7, n = 5, arithmetic mean ± SD, read-out: AUC0-6h): 24800 ± 3450 ng·h/mL
Vd [5]: 17.2 ± 3.33 L
clearance [6]: 69.2 mL/min
half-life [6]: 6.76 ± 0.35 h
AUC(0-t) (human, plasma, iv, 150 mg, Last q6h dose (day 9), 7-day MAD 150 mg q6h × 7, n = 5, arithmetic mean ± SD, read-out: AUC0–6h): 36600 ± 4360 ng·h/mL
Vd [6]: 40.9 ± 9.47 L
Tmax (human, plasma, iv, 150 mg, Last q6h dose (day 9), 7-day MAD 150 mg q6h × 7, n = 5, median (range), read-out: Tmax): 1.07 h
Cmax (human, plasma, iv, 150 mg, Last q6h dose (day 9), 7-day MAD 150 mg q6h × 7, plasma, n = 5, arithmetic mean ± SD): 11700 ± 1540 ng/mL
clearance [7]: 59.5 mL/min
half-life [7]: 12.4 ± 6.92 h
AUC(0-t) (human, plasma, iv, 150 mg, Last q6h dose (day 14), 14-day MAD 150 mg q6h × 14, Chinese, n = 6, arithmetic mean ± SD, read-out: AUC0–6h): 42500 ± 4960 ng·h/mL
Vd [7]: 61.9 ± 30.2 L
Cmax (human, plasma, iv, 150 mg, Last q6h dose (day 14), 14-day MAD 150 mg q6h × 14, Chinese, plasma, n = 6, arithmetic mean ± SD): 13300 ± 1500 ng/mL
clearance [8]: 64.7 mL/min
half-life [8]: 15.6 ± 11.7 h
AUC(0-t) (human, plasma, iv, 150 mg, Last q6h dose (day 14), 14-day MAD 150 mg q6h × 14, non-Chinese, n = 10, arithmetic mean ± SD, read-out: AUC0–6h): 39900 ± 7150 ng·h/mL
Vd [8]: 81.4 ± 55.6 L
Cmax (human, plasma, iv, 150 mg, Last q6h dose (day 14), 14-day MAD 150 mg q6h × 14, non-Chinese, plasma, n = 10, arithmetic mean ± SD): 12700 ± 1780 ng/mL
Cmax (human, plasma, iv, 200 mg, First q6h dose (day 3), 7-day MAD 200 mg q6h × 7, 1-h IV infusion, plasma, n = 5, arithmetic mean ± SD): 13500 ± 4430 ng/mL
clearance [9]: 76.3 mL/min
Vd [9]: 15.7 ± 5.81 L
half-life (human, plasma, iv, 200 mg, First q6h dose (day 3), 7-day MAD 200 mg q6h × 7, n = 5, arithmetic mean ± SD): 2.49 ± 0.51 h
AUC(0-t) (human, plasma, iv, 200 mg, First q6h dose (day 3), 7-day MAD 200 mg q6h × 7, n = 5, arithmetic mean ± SD, read-out: AUC0-6h): 36800 ± 10100 ng·h/mL
Tmax (human, plasma, iv, 200 mg, First q6h dose (day 3), 7-day MAD 200 mg q6h × 7, n = 5, median (range), read-out: Tmax): 1.08 h
clearance [10]: 57.8 mL/min
half-life [10]: 7.58 ± 0.93 h
AUC(0-t) (human, plasma, iv, 200 mg, Last q6h dose (day 9), 7-day MAD 200 mg q6h × 7, n = 5, arithmetic mean ± SD, read-out: AUC0–6h): 61300 ± 15700 ng·h/mL
Vd [10]: 37.3 ± 8.4 L
Tmax (human, plasma, iv, 200 mg, Last q6h dose (day 9), 7-day MAD 200 mg q6h × 7, n = 5, median (range), read-out: Tmax): 1.1 h
Cmax (human, plasma, iv, 200 mg, Last q6h dose (day 9), 7-day MAD 200 mg q6h × 7, plasma, n = 5, arithmetic mean ± SD): 18300 ± 4150 ng/mL
